{"source": "patent US20230067847A1", "about": "“COMBINATION OF BERBERINE AND DERIVATIVES THEREOF, AND VITAMIN B12” (NANJING NUTRABUILDING BIO-TECH CO., LTD., priority 2021, published 2023)", "key": {"high-fat diet (HFD) mice [1]": {"tested_on": "high-fat diet (HFD) mice", "assay": "Fasting blood glucose in HFD mice during 3 months of supplementation", "assay_type": "in vivo", "details": "after three months (12th week), gavage once daily, FIG. 1a", "method": "(§1) The high-fat diet (HFD, containing 60% fat by energy) mice at 8 weeks of age were divided into three groups: (1) non-supplement group (Con, n=5); (2) DHB supplement group (DHB, 100 mg/kg, n=5); […] VB12=100 mg/kg: 200 mg/kg, n=5). All mice were administered these things before each major meal for once daily (2 g/kg body weight) by gavage in normal saline solution for 3 months. Blood samples were collected from tail tips in a fasting state to measure serum VB 12, serum homocysteine, glucose, and serum holo-transcobalamin II (holo-TCII, a biologically active fraction for TCII receptors synthesis) and weighed the mice for 0th, 2th, 4th, 6th, 8th, 10th and 12th week. After 3 months of supplementation, glycated hemoglobin (HbA1c) was measured. Also, the insulin tolerance test was performed after 3 months of supplementation after subcutaneous injection of insulin (0.4 U/kg, 0.05 ml/10 g body weight) for 0, 30, 90 minutes. […] Elevated homocysteine was defined as > 15 µM/L. Vitamin B12 levels and holo-TCII were measured by using immunoassay analyzer to confirm the improvement in TCII receptors synthesis and VB12 levels. Serum homocysteine levels were measured using the chemiluminescent microparticle immunoassay to show the VB12 levels. HbA1c was determined with automated glycohemoglobin analyzer, which can indicate the effect of blood glucose control during the trial. […]"}, "high-fat diet (HFD) mice [2]": {"tested_on": "high-fat diet (HFD) mice", "assay": "Glycated hemoglobin (HbA1c) in HFD mice after 3 months of supplementation", "assay_type": "in vivo", "details": "after three months of supplementation, FIG. 1e", "method": "as §1"}, "high-fat diet (HFD) mice [3]": {"tested_on": "high-fat diet (HFD) mice", "assay": "Insulin tolerance test in HFD mice after 3 months of supplementation", "assay_type": "in vivo", "details": "90 minutes after subcutaneous insulin 0.4 U/kg, FIG. 1d", "method": "as §1"}, "high-fat diet (HFD) mice [4]": {"tested_on": "high-fat diet (HFD) mice", "assay": "Serum VB12 level in HFD mice (immunoassay analyzer)", "details": "mouse, in vivo", "method": "The high-fat diet (HFD, containing 60% fat by energy) mice at 8 weeks of age were divided into three groups: (1) non-supplement group (Con, n=5); (2) DHB supplement group (DHB, 100 mg/kg, n=5); (3) the combination of DHB and VB12 supplement group (DHB+VB12, DHB: VB12=100 mg/kg: 200 mg/kg, n=5). All mice were administered these things before each major meal for once daily (2 g/kg body weight) by gavage in normal saline solution for 3 months.\nBlood samples were collected from tail tips in a fasting state to measure serum VB 12, serum homocysteine, glucose, and serum holo-transcobalamin II (holo-TCII, a biologically active fraction for TCII receptors synthesis) and weighed the mice for 0th, 2th, 4th, 6th, 8th, 10th and 12th week. After 3 months of supplementation, glycated hemoglobin (HbA1c) was measured. […] Elevated homocysteine was defined as > 15 µM/L. Vitamin B12 levels and holo-TCII were measured by using immunoassay analyzer to confirm the improvement in TCII receptors synthesis and VB12 levels. Serum homocysteine levels were measured using the chemiluminescent microparticle immunoassay to show the VB12 levels. HbA1c was determined with automated glycohemoglobin analyzer, which can indicate the effect of blood glucose control during the trial. […]"}}}
{"smiles": "COc1ccc2c(c1OC)CN1CCc3cc4c(cc3C1=C2)OCO4", "note": "[DHB, dihydroberberine]", "values": [{"measurement": "blood glucose level decreased compared to the control group", "setting": "high-fat diet (HFD) mice [1]", "result": "about 35%"}, {"measurement": "HbA1c level decreased compared to the control group", "setting": "high-fat diet (HFD) mice [2]", "result": "about 20%"}, {"measurement": "blood glucose level lower than control group in insulin tolerance test", "setting": "high-fat diet (HFD) mice [3]", "result": "about 15%"}, {"measurement": "serum total VB12 change", "setting": "high-fat diet (HFD) mice [4]", "result": "significantly decreased"}]}
